Results as given in US20170022215A1, “Compounds for Eradicating or Inhibiting Proliferation of Cancer Stem Cells” (Godavari Biorefineries Limited, priority 2014, published 2017).

Assays:
[1] = tested on: CD44 expressing population (cancer stem cells) of MDA MB231 cells; assay: Flow cytometry analysis (anti-CD44-PE / anti-CD24-FITC staining) of MDA MB231 breast cancer cells; assay type: cell-based; settings: IC25 drug conc.; for effect on CD44 expressing cell population of MDA MB231 cells (quadrant plot): 48 hrs exposure; for activity on CD44 expressing cells (cancer stem cells population) of MDA MB231 cancer cells compared to standard therapeutic drug Cisplatin: 48 hrs, bar graph FIG. 5, versus Cisplatin
Experimental: (§1) MDA MB231 is a highly metastatic breast cancer cell line. Flow cytometry study was conducted to observe the effect of Ethyl-5-methyl-4-(phenylamino) thieno[2,3-d]pyrimidine-6-carboxylate and Ethyl-5-methyl-4-(4-methylphenyl)amino thieno[2,3-d]pyrimidine-6-carboxylate on MDA MB231 cells compared to standard therapeutic drug Cisplatin.
(§2) 1. […] In the quadrant plot upper left region (Q2-UL) only CD44 expressing cells were observed. In the quadrant plot upper right region (Q2-UR) CD44 and CD24 expressing cells were observed. In the quadrant plot lower left region (Q2-LL) […]. In the quadrant plot lower right region (Q2-LR) […].

[2] = tested on: CD44 expressing population (cancer stem cells) of DU145 cells; assay: Flow cytometry analysis (anti-CD44-PE / anti-CD24-FITC staining) of DU145 prostate cancer cells; assay type: cell-based; settings: IC25 drug conc.; for effect on CD44 expressing cell population of DU145 cells (quadrant plot): 48 hrs exposure; for activity on CD44 expressing cells (cancer stem cells population) of DU145 cancer cells compared to standard therapeutic drug Cisplatin: 48 hrs, bar graph FIG. 10, versus Cisplatin
Experimental: as §1, with “DU145” for “MDA MB231”, “moderately” for “highly”, “prostate” for “breast”
as §2

| Structure (SMILES) | effect on CD44 expressing cell population of MDA MB231 cells (quadrant plot) [1] | activity on CD44 expressing cells (cancer stem cells population) of MDA MB231 cancer cells compared to standard therapeutic drug Cisplatin [1] | effect on CD44 expressing cell population of DU145 cells (quadrant plot) [2] | activity on CD44 expressing cells (cancer stem cells population) of DU145 cancer cells compared to standard therapeutic drug Cisplatin [2] |
| --- | --- | --- | --- | --- |
| CCOC(=O)c1sc2ncnc(Nc3ccccc3)c2c1C [Ethyl-5-methyl-4-(phenylamino) thieno[2,3-d]pyrimidine-6-carboxylate] | marked effect | much better and enhanced activity | marked effect | much better and enhanced activity |
| CCOC(=O)c1sc2ncnc(Nc3ccc(C)cc3)c2c1C [Ethyl-5-methyl-4-(4-methylphenyl)amino thieno[2,3-d]pyrimidine-6-carboxylate] | marked effect | much better and enhanced activity | marked effect | much better and enhanced activity |
| N.N.[Cl][Pt][Cl] [Cisplatin, reference compound] | did not have much effect |  | did not have much effect |  |
